This note sets out measurements from patent US6413947B1, “Anilide derivative, production and use thereof” (Takeda Chemical Industries, Ltd., priority 1997, dated 2002).

Molecules are shown by their SMILES.

T1 sequence (P41597 whole entry): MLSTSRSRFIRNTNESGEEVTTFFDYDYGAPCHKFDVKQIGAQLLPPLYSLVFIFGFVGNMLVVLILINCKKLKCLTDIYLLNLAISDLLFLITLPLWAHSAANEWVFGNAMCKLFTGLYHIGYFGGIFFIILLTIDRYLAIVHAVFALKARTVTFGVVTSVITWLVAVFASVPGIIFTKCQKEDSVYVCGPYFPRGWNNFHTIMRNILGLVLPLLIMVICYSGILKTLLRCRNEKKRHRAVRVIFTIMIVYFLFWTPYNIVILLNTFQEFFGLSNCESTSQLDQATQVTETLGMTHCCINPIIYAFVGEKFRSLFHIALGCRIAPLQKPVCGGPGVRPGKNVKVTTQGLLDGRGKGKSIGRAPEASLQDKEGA

Tested on in one data set: not given
Assay: not given
Details: not given
For the compound `Cc1ccc(-c2ccc3c(c2)C=C(C(=O)Nc2ccc(CN(C)C4CCOCC4)cc2)CCO3)cc1` [Compound 128, N-(4—(N-methyl-(N-tetrahydropyran-4-yl)aminomethyl)phenyl)-7—(4-methylphenyl)-2,3-dihydro-1-benzoxepine-4-carboxamide], the melting point lay in the range of 162 to 163 °C.

`CN1CCC(C(=O)Nc2ccc(CN(C)C3CCOCC3)cc2)=Cc2cc(-c3ccc(C(F)(F)F)cc3)ccc21` [Compound 308, 1-methyl-N-[4-[[N-methyl-N-(tetrahydropyran-4-yl)amino]-methyl]phenyl]-7-(4-trifluoromethylphenyl)-2,3-dihydro-1-benzoazepine-4-carboxamide]: the melting point is 187.5 to 188.5 °C.

The compound `COCCN(CCOC)Cc1ccc(NC(=O)C2=Cc3cc(-c4ccc(C)cc4)ccc3OCC2)cc1` [Compound 311, N-(4-((N,N-bis(2-methoxyethyl)amino)methyl)phenyl)-7-(4-methylphenyl)-2,3-dihydro-1-benzoxepine-4-carboxamide] returned a melting point of 110 to 112 °C.

`CCOCCCN(C)Cc1ccc(NC(=O)C2=Cc3cc(-c4ccc(C)cc4)ccc3OCC2)cc1` [Compound 312, N-(4-((N-(3-ethoxypropyl)-N-methylamino)methyl)phenyl)-7-(4-methylphenyl)-2,3-dihydro-1-benzoxepine-4-carboxamide] showed a melting point of 119 to 122 °C.

On to `COCC(COC)N(C)Cc1ccc(NC(=O)C2=Cc3cc(-c4ccc(C)cc4)ccc3OCC2)cc1` [Compound 313, N-(4-((N-(1,3-dimethoxypropan-2-yl)-N-methylamino)methyl)phenyl)-7-(4-methylphenyl)-2,3-dihydro-1-benzoxepine-4-carboxamide], for which the melting point lay within 128 to 132 °C.

Consider `COCCN(C)Cc1ccc(NC(=O)C2=Cc3cc(-c4ccc(C)cc4)ccc3OCC2)cc1` [Compound 314, N-(4-((N-(2-methoxyethyl)-N-methylamino)methyl)phenyl)-7-(4-methylphenyl)-2,3-dihydro-1-benzoxepine-4-carboxamide], for which the melting point lay in the range of 121 to 122 °C.

With `CN1CCC(C(=O)Nc2ccc(CN(C)C3CCOCC3)cc2)=Cc2cc(-c3ccc(OC(F)(F)F)cc3)ccc21` [Compound 315, 1-methyl-N-[4-[[N-methyl-N-(tetrahydro-2H-pyran-4-yl)amino]methyl]phenyl]-7-(4-trifluoromethoxyphenyl)-2,3-dihydro-1-benzazepine-4-carboxamide], the melting point lay within 182 to 183 °C.

Take `CN1CCC(C(=O)Nc2ccc(CN(C)C3CCOCC3)cc2)=Cc2cc(-c3ccc(N4CCCCC4)cc3)ccc21` [Compound 316, 1-methyl-N-[4-[[N-methyl-N-(tetrahydro-2H-pyran-4-yl)amino]methyl]-phenyl]-7-[4-(1-piperidinyl)phenyl]-2,3-dihydro-1-benzazepine-4-carboxamide]: the melting point lay within 202 to 204 °C.

Take `Cc1ccc(-c2ccc3c(c2)C=C(C(=O)Nc2ccc(CN(C)C4CCOCC4)cc2)CCN3C=O)cc1` [Compound 317, 1-formyl-7-(4-methylphenyl)-N-[4-[[N-methyl-N-(tetrahydro-2H-pyran-4-yl)amino]methyl]phenyl]-2,3-dihydro-1-benzazepine-4-carboxamide]: the melting point lay in the range of 229 to 230.5 °C.

The compound `CCOCCCN(C)Cc1ccc(NC(=O)C2=Cc3cc(-c4ccc(OCC)cc4)ccc3N(C)CC2)cc1` [Compound 319, N-(4-((N-(3-ethoxypropyl)-N-methylamino)methyl)phenyl)-7-(4-ethoxyphenyl)-1-methyl-2,3-dihydro-1-benzazepine-4-carboxamide] returned a melting point of 129 to 131 °C.

Take `CCSc1ccc(-c2ccc3c(c2)C=C(C(=O)Nc2ccc(CN(C)C4CCOCC4)cc2)CCN3C)cc1` [Compound 320, 7-(4-ethylthiophenyl)-1-methyl-N-[4-[[N-methyl-N-(tetrahydro-2H-pyran-4-yl)amino]methyl]phenyl]-2,3-dihydro-1-benzazepine-4-carboxamide]: the melting point lay within 139 to 141 °C.

The compound `Cc1ccc(-c2ccc3c(c2)C=C(C(=O)Nc2ccc(CN(C)C4CCOCC4)cc2)CCN3S(=O)(=O)C(F)(F)F)cc1` [Compound 321, 7-(4-methylphenyl)-N-[4-[[N-methyl-N-(tetrahydro-2H-pyran-4-yl)amino]methyl]-phenyl]-1-[(trifluoromethyl)sulfonyl]-2,3-dihydro-1-benzazepine-4-carboxamide] showed a melting point of 185 to 187 °C.

With `Cc1ccc(-c2ccc3c(c2)C=C(C(=O)Nc2ccc(CNc4ccccn4)cc2)CCO3)cc1` [Compound 322, N-[4-[(pyrid-2-yl)aminomethyl]phenyl]-7-(4-methylphenyl)-2,3-dihydro-1-benzoxepine-4-carboxamide], the melting point is 189 to 190 °C.

Turning to `Cc1ccc(-c2ccc3c(c2)C=C(C(=O)Nc2ccc(CP4(=O)OCCCO4)cc2)CCO3)cc1` [Ref Ex 51, 2—(4—(7—(4-methylphenyl)-2,3-dihydro-1-benzoxepin-4-carbonylamino)benzyl)-1,3,2-dioxaphosphorinane-2-oxide], the melting point was in the range of 268 to 269 °C.

A further data set has as its target T1, human MCP-1 receptor (Homo sapiens, UniProt P41597).
T1 construct: expressed in transfected cells; host or cells: CHO cells, transformant CHO(MCR); FERM BP-5446; IFO 50461
Kind of data set: Determination of inhibitory activity on MCP-1 receptor (125I-MCP-1 binding to CHO cells expressing human MCP-1 receptor). The conditions noted are these: Test Compound 1 μM, 125I-human recombinant MCP-1 100 pM, room temperature 40 minutes. As for the experimental part: According to a method described in Working Example 1 of JP-A-238688/1997, human MCP-1 receptor gene was prepared. Said gene was inserted to plasmid pMCR, which was introduced into CHO cell. The resultant transformant [CHO(MCR); FERM BP-5446; IFO 50461] was used for the following experiment.
On 96 well culture plate (Packard Instrument Company), 7×10^4 cell/well of CHO cells expressing human MCP-1 receptor were inoculated, and the cells were cultivated at 37° C., overnight. The medium was removed by means of suction. To the residue were added a buffer solution (D-MEM containing 0.5% BSA and 20 mM HEPES; pH7.4), Test Compound (1 μM) and ^125I-human recombinant MCP-1 (Amersham; final concentration: 100 pM), and the mixture was allowed to react at room temperature for 40 minutes. The buffer solution was removed by means of suction and washed twice with PBS. To the residue was added MICROSCINT-20 (Packard Instrument Company), radioactivity of ^125I (cpm) was determined with Topcount (Packard).
The count number (cpm) (non-specific binding) of ^125I which binds to CHO cells (mock) having a vector was taken from the count number (cpm) of ^125I which binds to CHO cells expressing human MCP-1 receptor to obtain the amended count number, which was converted into 100%, and inhibition rate of Test Compound (whose number is referred to in the following Examples) against MCP-1 binding to its receptor was calculated.
Take `Cc1ccc(-c2ccc3c(c2)C=C(C(=O)Nc2ccc(C[N+]4(C)CCCCC4)cc2)CC3)cc1` [Compound 16, 1-methyl-1-[4-[7—(4-methylphenyl)-3,4-dihydronaphthalene-2-carboxamido]benzyl]piperidinium iodide]: the “Inhibition Rate (%) against MCP-1 binding to its receptor” value (“Inhibition Rate (%)” for short) came out at 89%.

Regarding `Cc1ccc(-c2cccc(/C=C/C(=O)Nc3ccc(C[N+]4(C)CCCCC4)cc3)c2)cc1` [Compound 72, (E)-1-methyl-1-[4—(3—(4-methylphenyl)cinnamamido)benzyl]-piperidinium iodide], the “Inhibition Rate (%)” value is on record as 77%.

As to `Cc1ccc(-c2ccc3c(c2)C=C(C(=O)Nc2ccc(C[N+]4(C)CCCCC4)cc2)CCS3)cc1` [Compound 94, 1—(N-(7—(4-methylphenyl)-2,3-dihydro-1-benzo-thiepine-4-carbonyl)-4-aminobenzyl)-1-methyl-piperidinium iodide], the “Inhibition Rate (%)” value is given as 92%.

In the case of `Cc1ccc(-c2ccc3c(c2)C=C(C(=O)Nc2ccc(C[N+]4(C)CCCCC4)cc2)CCO3)cc1` [Compound 97, 1—(N-(7—(4-methylphenyl)-2,3-dihydro-1-benzoxepin-4-carbonyl)-4-aminobenzyl)-1-methylpiperidinium chloride], the “Inhibition Rate (%)” value is 96%.

Consider `Cc1ccc(-c2ccc3c(c2)C=C(C(=O)Nc2ccc(CN(C)C4CCOCC4)cc2)CCO3)cc1` [Compound 128, N-(4—(N-methyl-(N-tetrahydropyran-4-yl)aminomethyl)phenyl)-7—(4-methylphenyl)-2,3-dihydro-1-benzoxepine-4-carboxamide], for which the “Inhibition Rate (%)” value amounted to 80%.

Consider `CN(Cc1ccc(NC(=O)C2=Cc3cc(-c4ccc(N5CCCCC5)cc4)ccc3OCC2)cc1)C1CCOCC1` [Compound 151], for which the “Inhibition Rate (%)” value turned out to be 80%.

Consider `CCc1ccc(-c2ccc3c(c2)C=C(C(=O)Nc2ccc(CP4(=O)CCCCC4)cc2)CCO3)cc1` [Compound 178, N-(4—(pentamethylene)-phosphorylmethylphenyl)-7—(4-ethylphenyl)-2,3-dihydro-1-benzoxepine-4-carboxamide], for which the “Inhibition Rate (%)” value amounted to 64%.

In the case of `Cc1ccc(-c2ccc3c(c2)C=C(C(=O)Nc2ccc(C[N+](C)(C)C4CCOCC4)cc2)CCC3)cc1` [Compound 220, N,N-dimethyl-N-(4—((2—(4-methylphenyl)-6,7-dihydro-5H-benzocyclohepten-8-yl)carbonyl)aminobenzyl)-N-(4-tetrahydropyranyl)ammonium iodide], the “Inhibition Rate (%)” value stood at 98%.

The term melting point denotes the temperature, or range, at which the solid turns liquid.
